Results on two molecules are retold here after paper PMC4731763, “Naturally occurring proteinaceous nanoparticles in Coptidis Rhizoma extract act as concentration-dependent carriers that facilitate berberine absorption” (Scientific Reports, 2016).

Molecules are shown by their SMILES. Where two headings read alike, the source gives them in different places.

The test system of data set [1] is P-gp. To be noted: cited from earlier work.
Data set [2] relates to mice. The following applies: mouse, in vivo. As for the experimental part:
The mice (n = 20 mice per group, 10 males and 10 females) were orally administered the test materials and the reactions of the mice were recorded for 7 days. Using this method, the acute oral toxicities of the following materials were tested at the dose volume of 0.2 mL/10 g body weight (dissolved in water) and compared: (1) the Coptidis Rhizoma extract (1 or 3 g/kg); (2) the supernatant of the Coptidis Rhizoma extract (3 g/kg) after centrifugation (300,000 g, 30 min, 4 °C); (3) pure berberine (206 or 618 mg/kg, equal to the dose of berberine in the 1 and 3 g/kg extracts, respectively); (4) alkaloid extract of Coptidis Rhizoma (1259 mg/kg, equal to the dose of berberine in the 3 g/kg extract).

Data set [3] can be described thus: Pharmacokinetics in mice: plasma berberine exposure after oral administration. The following applies: both sexes, Kun-Ming, mouse. Format: in vivo. As for the experimental part: A Shimadzu Prominence UFLCXR series HPLC (Shimadzu, Japan) and a Thermo Scientific TSQ Quantum Ultra mass spectrometer (Thermo Scientific, Waltham, MA, USA) equipped with an electrospray ionization (ESI) source were used. The samples were precipitated with 3 volumes of acetonitrile. Carbamazepine was used as the internal standard. After centrifugation (24,000 g, 6 min, 4 °C), the supernatant was mixed with an equal volume of water and 10-μL samples were injected into the LC-MS/MS system. The samples were eluted through a Hypersil Gold (C18) analytical column (5 μm, 100 × 2.1 mm) with a gradient of the aqueous phase (0.08% v/v formic acid and 2 mM ammonium acetate) and the acetonitrile phase (0 min, 85:15; 7 min, 32:68; 7.01 min, 85:15; 10 min, 85:15) at a flow rate of 0.3 mL/min. The ESI source was set to positive ion mode. Data acquisition was performed in the multiple reaction monitoring mode of the selective mass transition for each compound. The transitions from the precursor ions to the protonated fragment product ions were monitored: m/z 336.15 → m/z 322.28 for berberine and m/z 237.00 → m/z 194.31 for carbamazepine. The linear dynamic range for berberine in the tested biological samples was 0.5 to 500 ng/mL. […] The accuracy, precision, recovery, and stability tests all met the requirements of quantitative determination in biological samples. […]

On the set-up of data set [4]: method as in PMID 20138204. To be noted: cited from earlier work.

With `COc1cc([C@H]2Oc3cc(-c4cc(=O)c5c(O)cc(O)cc5o4)cc(OC)c3O[C@@H]2CO)ccc1O` (racemic) [5′-methoxyhydnocarpin], the “Effect on P-gp” value in data set [1] is recorded as “inhibitory effects on P-gp”.

For the molecule `COc1ccc2cc3[n+](cc2c1OC)CCc1cc2c(cc1-3)OCO2` [pure berberine, berberine], the “Acute oral toxicity (survival of mice)” value in data set [2] (206 mg/kg) is “survived”. For the same molecule, the “Acute oral toxicity (reaction or death of mice)” value in data set [2] (618 mg/kg) is reported as “did not show toxic reactions”. Besides, the AUC(0-t) turned out to be 722 ng·h/mL in data set [3] (206 mg/kg pure berberine, read-out: Plasma berberine AUC0–24 h) and 22.1 ng·h/mL in data set [3] (618 mg/kg pure berberine, read-out: Plasma berberine AUC0–4 h). Also, the “Toxicity in vivo after oral administration” value in data set [4] was “weak toxicity”. In data set [1], the P-gp substrate status entry is “P-gp substrate”.
